Results from ChEMBL document CHEMBL3352426, “A natural phenylpropionate derivative from Mirabilis himalaica inhibits cell proliferation and induces apoptosis in HepG2 cells” (Bioorg Med Chem Lett, 2014).
Converted amounts (≈) assume the structure as drawn. The source made the active and inactive calls. The calls are words filed in the database; no cut-off is given here.

Tests used:
[1] = test system: HepG2; experiment: Cytotoxicity against human HepG2 cells assessed as inhibition of cell proliferation after 48 hrs by CCK8 assay; format: functional, cell-based
[2] = test system: HepG2; experiment: Cytotoxicity against human HepG2 cells assessed as inhibition of cell proliferation at 2.5 to 40 ug/ml by CCK8 assay; format: functional, cell-based; details: TDE = time-dependent effect
[3] = test system: HepG2; experiment: Cytotoxicity against human HepG2 cells assessed as inhibition of cell proliferation at 20 ug/ml by MTT assay; format: functional
[4] = test system: HepG2; experiment: Induction of apoptosis in human HepG2 cells assessed as assessed as accumulation at G0/G1 phase after 48 hrs by propidium iodide staining-based flow cytometric analysis (reference value: 70.8%); format: functional
[5] = test system: HepG2; experiment: Induction of apoptosis in human HepG2 cells assessed as assessed as accumulation at S phase after 48 hrs by propidium iodide staining-based flow cytometric analysis (reference value: 18.9%); format: functional
[6] = test system: HepG2; experiment: Induction of apoptosis in human HepG2 cells assessed as assessed as accumulation at G2/M phase after 48 hrs by propidium iodide staining-based flow cytometric analysis (reference value: 10.4%); format: functional
[7] = test system: HepG2; experiment: Effect on CDK2 expression in human HepG2 cells after 48 hrs by Western blot analysis; format: functional, cell-based
[8] = test system: HepG2; experiment: Effect on CDK4 expression in human HepG2 cells after 48 hrs by Western blot analysis; format: functional, cell-based
[9] = test system: HepG2; experiment: Effect on CDK6 expression in human HepG2 cells after 48 hrs by Western blot analysis; format: functional, cell-based
[10] = test system: HepG2; experiment: Effect on Cyclin D1 expression in human HepG2 cells after 48 hrs by Western blot analysis; format: functional, cell-based
[11] = test system: HepG2; experiment: Effect on Cyclin A expression in human HepG2 cells after 48 hrs by Western blot analysis; format: functional, cell-based
[12] = test system: HepG2; experiment: Cytotoxicity against human HepG2 cells assessed as decrease in positive staining after 1 hr by BrdU immunofluorescence assay relative to untreated control; format: functional
[13] = test system: HepG2; experiment: Induction of apoptosis in human HepG2 cells assessed as assessed as increase in apoptotic cells after 48 hrs by annexin V/propidium iodide staining-based flow cytometric analysis; format: functional
[14] = Cytotoxicity against human L02 cells assessed as assessed as apoptotic cells after 48 hrs by annexin V/propidium iodide staining-based flow cytometric analysis; format: cell-based; details: l02, 48 h
[15] = test system: HepG2; experiment: Induction of alteration in mitochondrial membrane potential in human HepG2 cells assessed as decrease Rh-123 fluorescence at 5 ug/ml after 48 hrs by flow cytometric analysis; format: functional; details: HepG2, 48 h
[16] = test system: HepG2; experiment: Induction of alteration in mitochondrial membrane potential in human HepG2 cells assessed as decrease Rh-123 fluorescence at 10 ug/ml after 48 hrs by flow cytometric analysis; format: functional; details: HepG2, 48 h
[17] = test system: HepG2; experiment: Induction of alteration in mitochondrial membrane potential in human HepG2 cells assessed as decrease Rh-123 fluorescence at 20 ug/ml after 48 hrs by flow cytometric analysis; format: functional; details: HepG2, 48 h
[18] = test system: HepG2; experiment: Induction of alteration in mitochondrial membrane potential in human HepG2 cells assessed as decrease Rh-123 fluorescence after 48 hrs by flow cytometric analysis; format: functional, cell-based
[19] = test system: HepG2; experiment: Induction of apoptosis in human HepG2 cells assessed as increase in Bax level after 48 hrs by Western blot analysis; format: functional, cell-based
[20] = test system: HepG2; experiment: Induction of apoptosis in human HepG2 cells assessed as decrease in Bcl2 level after 48 hrs by Western blot analysis; format: functional, cell-based
[21] = test system: HepG2; experiment: Induction of apoptosis in human HepG2 cells assessed as caspase 3 activation after 48 hrs by Western blot analysis; format: functional, cell-based
[22] = test system: HepG2; experiment: Induction of apoptosis in human HepG2 cells transfected with pBabe-puro assessed as apoptotic cell accumulation after 48 hrs by annexin V/propidium iodide staining-based flow cytometric analysis; format: functional
[23] = test system: HepG2; experiment: Induction of apoptosis in human HepG2 cells transfected with pBabe-puro with Bcl2 assessed as apoptotic cell accumulation after 48 hrs by annexin V/propidium iodide staining-based flow cytometric analysis; format: functional
[24] = test system: HepG2; experiment: Increase in p53 expression in human HepG2 cells after 48 hrs by Western blot analysis; format: functional, cell-based
[25] = test system: HepG2; experiment: Increase in p21 expression in human HepG2 cells after 48 hrs by Western blot analysis; format: functional, cell-based
[26] = test system: HepG2; experiment: Induction of apoptosis in human HepG2 cells transfected with p53 shRNA assessed as apoptotic cell accumulation after 48 hrs by annexin V/propidium iodide staining-based flow cytometric analysis; format: functional
[27] = test system: HepG2; experiment: Antitumor activity against human HepG2 cells injected in ip dosed mouse assessed as reduction in tumor size treated for 13 days; format: functional
[28] = test system: Mus musculus; experiment: Toxicity in human HepG2 cells injected in ip dosed mouse assessed as change in body weight; format: organism-based; details: in vivo

**Q.** Which inhibition [1] does the source give for `COc1cc(OC(=O)/C=C/c2ccc(O)cc2OC)ccc1O` here?
**A.** Dose-dependent effect

**Q.** What about the IC50 ([1]; HepG2, 48 h) of the same molecule?
**A.** 15.1 µg/mL (≈ 47.8 µM)

**Q.** And the inhibition [2]?
**A.** tde

**Q.** And the inhibition at 20 µg/mL [3]?
**A.** 37%

**Q.** What about the Activity [4] of the same molecule?
**A.** 52.6%

**Q.** And the Activity [5]?
**A.** 36%

**Q.** And the Activity [6]?
**A.** 11.4%

**Q.** What about the Activity [7] of the same molecule?
**A.** inactive

**Q.** And the Activity [8]?
**A.** inactive

**Q.** And the Activity [9]?
**A.** inactive

**Q.** What about the Activity [10] of the same molecule?
**A.** inactive

**Q.** And the Activity [11]?
**A.** inactive

**Q.** And the “inhibition (INH)” value [12]?
**A.** 40%

**Q.** And the Activity [13]?
**A.** 89.9%

**Q.** What about the Activity [14] of the same molecule?
**A.** Non-toxic

**Q.** What about the inhibition at 5 µg/mL [15] of the same molecule?
**A.** 37.1%

**Q.** And the inhibition at 10 µg/mL [16]?
**A.** 69.5%

**Q.** What about the inhibition at 20 µg/mL [17] of the same molecule?
**A.** 84.9%

**Q.** And the inhibition [18]?
**A.** Dose-dependent effect

**Q.** What about the Activity [19] of the same molecule?
**A.** Active

**Q.** And the inhibition [20]?
**A.** Active

**Q.** And the Activity [21]?
**A.** Active

**Q.** What about the Activity [22] of the same molecule?
**A.** 75.4%

**Q.** And the Activity [23]?
**A.** 26.9%

**Q.** What about the Activity [24] of the same molecule?
**A.** Active

**Q.** What about the Activity [25] of the same molecule?
**A.** Active

**Q.** And the Activity [26]?
**A.** 68.8%

**Q.** What about the “inhibition (INH)” value [27] of the same molecule?
**A.** 50%

**Q.** What about the Activity [28] of the same molecule?
**A.** Non-toxic
